Experiments:
EVSA-T cells = assay: Cell proliferation assay (CellTiter-Glo), EVSA-T; format: cell-based; details: Homo sapiens, EVSA-T, 72 h, 72 h treatment, Celltiter-Glo luminescence
Method in brief: (§1)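 MDA-MB-231 (RPMI-1640/10% FBS) and EVSA-T (MEM/10% FBS) cells, 10000 cells/well, exposed 72 h to compound at […]. Viability read by CellTiter-Glo luminescence after 15 min at room temperature. IC50 from control-normalised curve fitting.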

MDA-MB-231 cells = assay: Cell proliferation assay (CellTiter-Glo), MDA-MB-231; format: cell-based; details: Homo sapiens, MDA-MB-231, 72 h, 72 h treatment, Celltiter-Glo luminescence
Method in brief: as §1

C[C@@H]1CN(CC(=O)N2CC(C)(C)c3c2cc(Cc2ccc(F)cc2)c2nn([C@H]4CCOC4)c(=O)n32)[C@@H](CN2CCOC[C@H]2C)CN1 [Compound 218, 4-(4-fluorobenzyl)-8,8-dimethyl-6-(2-((2R,5R)-5-methyl-2-(((R)-3-methylmorpholino)methyl)piperazin-1-yl)acetyl)-2-((S)-tetrahydrofuran-3-yl)-2,6,7,8-tetrahydro-1H-pyrrolo[2,3-e][1,2,4]triazolo[4,3-a]pyridin-1-one]
IC50 (EVSA-T cells): 2 nM
IC50 (MDA-MB-231 cells): 47 nM

C[C@@H]1CN(CC(=O)N2CC(C)(C)c3c2cc(Cc2ccc(F)cc2)c2ncnn32)[C@@H](CN2CCN(CC(F)(F)F)C[C@H]2C)CN1 [Compound 63, 1-(4-(4-fluorobenzyl)-8,8-dimethyl-7,8-dihydro-6H-pyrrolo[2,3-e][1,2,4]triazolo[1,5-a]pyridin-6-yl)-2-((2R,5R)-5-methyl-2-(((R)-2-methyl-4-(2,2,2-trifluoroethyl)piperazin-1-yl)methyl)piperazin-1-yl)ethan-1-one]
IC50 (EVSA-T cells): 3 nM
IC50 (MDA-MB-231 cells): 28 nM

Cc1nc2c(Cc3ccc(F)cc3)cc3c(n2n1)C(C)(C)CN3C(=O)CN1C[C@@H](C)NC[C@@H]1CN1CCOC[C@H]1C [Compound 36, 1-(4-(4-fluorobenzyl)-2,8,8-trimethyl-7,8-dihydro-6H-pyrrolo[2,3-e][1,2,4]triazolo[1,5-a]pyridin-6-yl)-2-((2R,5R)-5-methyl-2-(((R)-3-methylmorpholino)methyl)piperazin-1-yl)ethan-1-one]
IC50 (EVSA-T cells): 2 nM
IC50 (MDA-MB-231 cells): 36 nM

C[C@@H]1CN(CC(=O)N2CC(C)(C)c3c2cc(Cc2ccc(F)cc2)c2nc(N4C[C@@H](O)[C@@H](O)C4)nn32)[C@@H](CN2CCOC[C@H]2C)CN1 [Compound 229, 1-(2-((3R,4S)-3,4-dihydroxypyrrolidin-1-yl)-4-(4-fluorobenzyl)-8,8-dimethyl-7,8-dihydro-6H-pyrrolo[2,3-e][1,2,4]triazolo[1,5-a]pyridin-6-yl)-2-((2R,5R)-5-methyl-2-(((R)-3-methylmorpholino)methyl)piperazin-1-yl)ethan-1-one]
IC50 (EVSA-T cells): 7 nM
IC50 (MDA-MB-231 cells): 76 nM

C[C@@H]1CN(CC(=O)N2CC(C)(C)c3c2cc(Cc2ccc(F)cc2F)c2nn(C[C@H]4COCCO4)c(=O)n32)[C@@H](CN2CCOC[C@H]2C)CN1 [Compound 285, 2-(((S)-1,4-dioxan-2-yl)methyl)-4-(2,4-difluorobenzyl)-8,8-dimethyl-6-(2-((2R,5R)-5-methyl-2-(((R)-3-methylmorpholino)methyl)piperazin-1-yl)acetyl)-2,6,7,8-tetrahydro-1H-pyrrolo[2,3-e][1,2,4]triazolo[4,3-a]pyridin-1-one]
IC50 (EVSA-T cells): 4.6 nM
IC50 (MDA-MB-231 cells): 26 nM

C[C@@H]1CN(CC(=O)N2CC(C)(C)c3c2cc(Cc2ccc(F)cc2)c2nn(-c4ncccn4)c(=O)n32)[C@@H](CN2CCOC[C@H]2C)CN1 [Compound 230, 4-(4-fluorobenzyl)-8,8-dimethyl-6-(2-((2R,5R)-5-methyl-2-(((R)-3-methylmorpholino)methyl)piperazin-1-yl)acetyl)-2-(pyrimidin-2-yl)-2,6,7,8-tetrahydro-1H-pyrrolo[2,3-e][1,2,4]triazolo[4,3-a]pyridin-1-one]
IC50 (EVSA-T cells): 8 nM
IC50 (MDA-MB-231 cells): 38 nM

C[C@@H]1CN(CC(=O)N2CC(C)(C)c3c2cc(Cc2ccc(F)cc2)c2nn(Cc4ncccc4F)c(=O)n32)[C@@H](CN2CCOC[C@H]2C)CN1 [Compound 220, 4-(4-fluorobenzyl)-2-((3-fluoropyridin-2-yl)methyl)-8,8-di methyl-6-(2-((2R,5R)-5-methyl-2-(((R)-3-methylmorpholino)methyl)piperazin-1-yl)acetyl)-2,6,7,8-tetrahydro-1H-pyrrolo[2,3-e][1,2,4]triazolo[4,3-a]pyridin-1-one]
IC50 (EVSA-T cells): 2 nM
IC50 (MDA-MB-231 cells): 68 nM

C[C@@H]1CN(CC(=O)N2CC(C)(C)c3c2cc(Cc2ccc(F)cc2)c2nc(N4CC5CC(C4)O5)nn32)[C@@H](CN2CCOC[C@H]2C)CN1 [Compound 189, 1-(2-(6-oxa-3-azabicyclo[3.1.1]heptan-3-yl)-4-(4-fluorobenzyl)-8,8-dimethyl-7,8-dihydro-6H-pyrrolo[2,3-e][1,2,4]triazolo[1,5-a]pyridin-6-yl)-2-((2R,5R)-5-methyl-2-(((R)-3-methylmorpholino)methyl)piperazin-1-yl)ethan-1-one]
IC50 (EVSA-T cells): 2 nM
IC50 (MDA-MB-231 cells): 10 nM

[2H]C([2H])([2H])n1nc2c(Cc3ccc(F)cc3)cc3c(n2c1=O)C(C)(C)CN3C(=O)CN1C[C@@H](C)NC[C@@H]1CN1CCOC[C@H]1C [Compound 252]
IC50 (EVSA-T cells): 5.3 nM
IC50 (MDA-MB-231 cells): 32 nM

C[C@@H]1CN(CC(=O)N2CC(C)(C)c3c2cc(Cc2ccc(F)cc2)c2ncnn32)[C@@H](CN2Cc3ccncc3C2=O)CN1 [Compound 97, 2-(((2R,5R)-1-(2-(4-(4-fluorobenzyl)-8,8-dimethyl-7,8-dihydro-6H-pyrrolo[2,3-e][1,2,4]triazolo[1,5-a]pyridin-6-yl)-2-oxoethyl)-5-methylpiperazin-2-yl)methyl)-1,2-dihydro-3H-pyrrolo[3,4-c]pyridin-3-one]
IC50 (EVSA-T cells): 3 nM
IC50 (MDA-MB-231 cells): 47 nM

C[C@@H]1CN(CC(=O)N2CC(C)(C)c3c2cc(Cc2ccc(F)cc2)c2c(C#N)cnn32)[C@@H](CN2CCOC[C@H]2C)CN1 [Compound 105, 4-(4-fluorobenzyl)-8,8-dimethyl-6-(2-((2R,5R)-5-methyl-2-(((R)-3-methylmorpholino)methyl)piperazin-1-yl)acetyl)-7,8-dihydro-6H-pyrazolo[1,5-a]pyrrolo[2,3-e]pyridine-3-carbonitrile]
IC50 (EVSA-T cells): 9 nM
IC50 (MDA-MB-231 cells): 100 nM

COC(=O)N1CCN(CC2CN[C@H](C)CN2CC(=O)N2CC(C)(C)c3c2cc(Cc2ccc(F)cc2)c2ncnn32)[C@H](C)C1 (stereo in doubt) [Compound 223, methyl (R)-4-(((2S,5R)-1-(2-(4-(4-fluorobenzyl)-8,8-dimethyl-7,8-dihydro-6H-pyrrolo[2,3-e][1,2,4]triazolo[1,5-a]pyridin-6-yl)-2-oxoethyl)-5-methylpiperazin-2-yl)methyl)-3-methylpiperazine-1-carboxylate]
IC50 (EVSA-T cells): 3 nM
IC50 (MDA-MB-231 cells): 77 nM

Cc1nnc2c(Cc3ccc(F)cc3)cc3c(n12)C(C)(C)CN3C(=O)CN1C[C@@H](C)NC[C@@H]1CN1CCOC[C@H]1C [Example 10, 1-(4-(4-fluorobenzyl)-1,8,8-trimethyl-7,8-dihydro-6H-pyrrolo[2,3-e][1,2,4]triazolo[4,3-a]pyridin-6-yl)-2-((2R,5R)-5-methyl-2-(((R)-3-methylmorpholino)methyl)piperazin-1-yl)ethan-1-one]
IC50 (EVSA-T cells): 27 nM
IC50 (MDA-MB-231 cells): 350 nM

C[C@@H]1CN(CC(=O)N2CC(C)(C)c3c2cc(Cc2ccc(F)cc2)c2nc(N)nn32)[C@@H](CN2CCOC[C@H]2C)CN1 [Example 30, 1-(2-amino-4-(4-fluorobenzyl)-8,8-dimethyl-7,8-dihydro-6H-pyrrolo[2,3-e][1,2,4]triazolo[1,5-a]pyridin-6-yl)-2-((2R,5R)-5-methyl-2-(((R)-3-methylmorpholino)methyl)piperazin-1-yl)ethan-1-one]
IC50 (EVSA-T cells): 3 nM
IC50 (MDA-MB-231 cells): 16 nM

C[C@@H]1CN(CC(=O)N2CC(C)(C)c3c2cc(Cc2ccc(F)cc2)c2ncnn32)[C@@H](CN2CCC(C)(O)C[C@H]2C)CN1 (stereo partly drawn) [Compound 77, 1-(4-(4-fluorobenzyl)-8,8-dimethyl-7,8-dihydro-6H-pyrrolo[2,3-e][1,2,4]triazolo[1,5-a]pyridin-6-yl)-2-((2R,5R)-2-(((2R)-4-hydroxy-2,4-dimethylpiperidin-1-yl)methyl)-5-methylpiperazin-1-yl)ethan-1-one]
IC50 (EVSA-T cells): 5 nM
IC50 (MDA-MB-231 cells): 70 nM

C[C@@H]1CN(CC(=O)N2CC(C)(C)c3c2cc(Cc2ccc(F)cc2)c2nn(C4CC(C)(O)C4)c(=O)n32)[C@@H](CN2CCOC[C@H]2C)CN1 (stereo partly drawn) [Compound 272, 4-(4-fluorobenzyl)-2-(3-hydroxy-3-methylcyclobutyl)-8,8-dimethyl-6-(2-((2R,5R)-5-methyl-2-(((R)-3-methylmorpholino)methyl)piperazin-1-yl)acetyl)-2,6,7,8-tetrahydro-1H-pyrrolo[2,3-e][1,2,4]triazolo[4,3-a]pyridin-1-one]
IC50 (EVSA-T cells): 2 nM
IC50 (MDA-MB-231 cells): 21 nM

C[C@@H]1CN(CC(=O)N2CC(C)(C)c3c2cc(C(F)c2ccc(F)cc2)c2ncnn32)[C@@H](CN2CCOC[C@H]2C)CN1 (stereo partly drawn) [Compound 138, 1-(4-(fluoro(4-fluorophenyl)methyl)-8,8-dimethyl-7,8-dihydro-6H-pyrrolo[2,3-e][1,2,4]triazolo[1,5-a]pyridin-6-yl)-2-((2R,5R)-5-methyl-2-(((R)-3-methylmorpholino)methyl)piperazin-1-yl)ethan-1-one]
IC50 (EVSA-T cells): 33 nM
IC50 (MDA-MB-231 cells): 160 nM

C[C@@H]1CN(CC(=O)N2CC(C)(C)c3c2cc(Cc2ccc(F)cc2)c2nn(CCO)c(=O)n32)[C@@H](CN2CCOC[C@H]2C)CN1 [Compound 201, 4-(4-fluorobenzyl)-2-(2-hydroxyethyl)-8,8-dimethyl-6-(2-((2R,5R)-5-methyl-2-(((R)-3-methylmorpholino)methyl)piperazin-1-yl)acetyl)-2,6,7,8-tetrahydro-1H-pyrrolo[2,3-e][1,2,4]triazolo[4,3-a]pyridin-1-one]
IC50 (EVSA-T cells): 11 nM
IC50 (MDA-MB-231 cells): 26 nM

C[C@@H]1CN(CC(=O)N2CC(C)(C)c3c2cc(Cc2ccc(F)cc2)c2nc(C(F)F)cn32)[C@@H](CN2CCOC[C@H]2C)CN1 [Compound 122, 1-(2-(difluoromethyl)-4-(4-fluorobenzyl)-8,8-dimethyl-7,8-dihydro-6H-imidazo[1,2-a]pyrrolo[2,3-e]pyridin-6-yl)-2-((2R,5R)-5-methyl-2-(((R)-3-methylmorpholino)methyl)piperazin-1-yl)ethan-1-one]
IC50 (EVSA-T cells): 6 nM
IC50 (MDA-MB-231 cells): 65 nM
